Legend:
Type in all cases: in vivo
[1] = system: Echinochloa crus-galli (ECHCG); assay: Post-emergence Test, ECHCG; conditions: sprayed after 8 days cultivation, 1000 g/ha, evaluated after 13 days
Experimental: (§1) Seeds of a variety of test species are sown in standard soil in pots (Amaranthus retoflexus (AMARE), Solarium nigrum (SOLNI), Setaria faberi (SETFA), Lolium perenne (LOLPE), Echinochloa crus-galli (ECHCG), Ipornoea hederacea (IPOHE)). After 8 days cultivation under controlled conditions in a glasshouse (at 24° C./16° C., day/night; 14 hours light; 65% humidity), the plants are sprayed with an aqueous spray solution derived from the formulation of the technical active ingredient in acetone/water (50:50) solution containing 0.5% Tween 20 (polyoxyethylene sorbitan monolaurate, CAS RN 9005-64-5). Compounds are applied at 1000 g/ha unless otherwise stated. The test plants are then grown in a glasshouse under controlled conditions in a glasshouse (at 24° C./16° C., day/night; 14 hours light; 65% humidity) and watered twice daily. After 13 days the test is evaluated for the percentage damage caused to the plant. The biological activities are shown in the following table on a five-point scale (5=81-100%; 4=61-80%; 3=41-60%; 2=21-40%; 1=10-20%; 0=0%; −=not tested).

[2] = system: Amaranthus retoflexus (AMARE); assay: Post-emergence Test, AMARE; conditions: sprayed after 8 days cultivation, 1000 g/ha, evaluated after 13 days
Experimental: as §1

[3] = system: Echinochloa crus-galli (ECHCG); assay: Pre-emergence Test, ECHCG; conditions: 1000 g/ha, evaluated after 13 days
[4] = system: Amaranthus retoflexus (AMARE); assay: Pre-emergence Test, AMARE; conditions: 1000 g/ha, evaluated after 13 days
Setaria faberi (SETFA) [5] = assay: Post-emergence Test, SETFA; conditions: sprayed after 8 days cultivation, 1000 g/ha, evaluated after 13 days
Experimental: as §1

Setaria faberi (SETFA) [6] = assay: Pre-emergence Test, SETFA; conditions: 1000 g/ha, evaluated after 13 days
[7] = system: Ipornoea hederacea (IPOHE); assay: Pre-emergence Test, IPOHE; conditions: 1000 g/ha, evaluated after 13 days
[8] = system: Ipornoea hederacea (IPOHE); assay: Post-emergence Test, IPOHE; conditions: sprayed after 8 days cultivation, 1000 g/ha, evaluated after 13 days
Experimental: as §1

ZEAMX [9] = assay: Post-emergence Test, ZEAMX; conditions: sprayed after 8 days cultivation, 1000 g/ha, evaluated after 13 days
Experimental: [The procedure below names another target; the source lists this target under the same test.] as §1

ABUTH [10] = assay: Pre-emergence Test, ABUTH; conditions: 1000 g/ha, evaluated after 13 days
ZEAMX [11] = assay: Pre-emergence Test, ZEAMX; conditions: 1000 g/ha, evaluated after 13 days
ABUTH [12] = assay: Post-emergence Test, ABUTH; conditions: sprayed after 8 days cultivation, 1000 g/ha, evaluated after 13 days
Experimental: [The procedure below names another target; the source lists this target under the same test.] as §1

Structure (SMILES) | percentage damage caused to the plant, ECHCG [1] | percentage damage caused to the plant, AMARE [2] | percentage damage caused to the plant, ECHCG [3] | percentage damage caused to the plant, AMARE [4] | percentage damage caused to the plant, SETFA (Setaria faberi (SETFA) [5]) | percentage damage caused to the plant, SETFA (Setaria faberi (SETFA) [6]) | percentage damage caused to the plant, IPOHE [7] | percentage damage caused to the plant, IPOHE [8] | percentage damage caused to the plant, ZEAMX (ZEAMX [9]) | percentage damage caused to the plant, ABUTH (ABUTH [10]) | percentage damage caused to the plant, ZEAMX (ZEAMX [11]) | percentage damage caused to the plant, ABUTH (ABUTH [12])
CCOC(=O)c1nn(-c2ccc(OC(F)(F)F)cc2)c2cccc(-n3cc(Cl)cn3)c2c1=O [Compound P32, ethyl 5-(4-chloropyrazol-1-yl)-4-oxo-1-[4-(trifluoromethoxy)phenyl] cinnoline-3-carboxylate] | 3 (3=41-60%) | 1 (1=10-20%) | 4 (4=61-80%) | 2 (2=21-40%) | 3 (3=41-60%) | 4 (4=61-80%) | 0 (0=0%) | 1 (1=10-20%) | 1 (1=10-20%) | 2 (2=21-40%) | 2 (2=21-40%) | 1 (1=10-20%)
C=Cc1cccc2c1c(=O)c(C(=O)OCC)nn2-c1ccc(OC(F)(F)F)cc1 [Compound P16, ethyl 4-oxo-1-[4-(trifluoromethoxy)phenyl]-5-vinyl-cinnoline-3-carboxylate] | 3 (3=41-60%) | 2 (2=21-40%) | 2 (2=21-40%) | 2 (2=21-40%) | 4 (4=61-80%) | 3 (3=41-60%) | 1 (1=10-20%) | 1 (1=10-20%) | 2 (2=21-40%) | 2 (2=21-40%) | 1 (1=10-20%) | 1 (1=10-20%)
CCOC(=O)c1nn(-c2ccc(OC(F)(F)F)cc2)c2cccc(N3CCCC3)c2c1=O [Compound P28, ethyl 4-oxo-5-pyrrolidin-1-yl-1-[4-(trifluoromethoxy)phenyl] cinnoline-3-carboxylate] | 0 (0=0%) | 0 (0=0%) | 0 (0=0%) | 0 (0=0%) | 0 (0=0%) | 0 (0=0%) | 0 (0=0%) | 0 (0=0%) | 0 (0=0%) | 0 (0=0%) | 0 (0=0%) | 0 (0=0%)
CCOC(=O)c1nn(-c2ccc(OC(F)(F)F)cc2)c2cccc(C(C)=O)c2c1=O [Compound P30, ethyl 5-acetyl-4-oxo-1-[4-(trifluoromethoxy)phenyl] cinnoline-3-carboxylate] | 4 (4=61-80%) | 1 (1=10-20%) | 4 (4=61-80%) | 1 (1=10-20%) | 4 (4=61-80%) | 5 (5=81-100%) | 1 (1=10-20%) | 2 (2=21-40%) | 3 (3=41-60%) | 2 (2=21-40%) | 4 (4=61-80%) | 3 (3=41-60%)
CCOC(=O)c1nn(-c2ccc(OC(F)(F)F)cc2)c2cccc(-n3cc(C(F)(F)F)cn3)c2c1=O [Compound P31, ethyl 4-oxo-1-[4-(trifluoromethoxy)phenyl]-5-[4-(trifluoromethyl)pyrazol-1-yl]cinnoline-3-carboxylate] | 0 (0=0%) | 0 (0=0%) | 0 (0=0%) | 0 (0=0%) | 0 (0=0%) | 0 (0=0%) | 0 (0=0%) | 0 (0=0%) | 0 (0=0%) | 0 (0=0%) | 0 (0=0%) | 0 (0=0%)
C=Cc1cccc2c1c(=O)c(C(=O)O)nn2-c1ccc(OC(F)(F)F)cc1 [Compound P17, 4-oxo-1-[4-(trifluoromethoxy)phenyl]-5-vinyl-cinnoline-3-carboxylic acid] | 3 (3=41-60%) | 2 (2=21-40%) | 2 (2=21-40%) | 2 (2=21-40%) | 3 (3=41-60%) | 3 (3=41-60%) | 0 (0=0%) | 0 (0=0%) | 1 (1=10-20%) | 1 (1=10-20%) | 1 (1=10-20%) | 1 (1=10-20%)
O=C(O)c1nn(-c2ccc(OC(F)(F)F)cc2)c2cccc(-n3cc(C(F)(F)F)cn3)c2c1=O [Compound P22, 4-oxo-1-[4-(trifluoromethoxy)phenyl]-5-[4-(trifluoromethyl)pyrazol-1-yl]cinnoline-3-carboxylic acid] | 0 (0=0%) | 4 (4=61-80%) | 0 (0=0%) | 2 (2=21-40%) | 2 (2=21-40%) | 0 (0=0%) | 0 (0=0%) | 1 (1=10-20%) | 2 (2=21-40%) | 0 (0=0%) | 0 (0=0%) | 1 (1=10-20%)
O=C(O)c1nn(-c2ccc(OC(F)(F)F)cc2)c2cccc(N3CCCC3)c2c1=O [Compound P23, 4-oxo-5-pyrrolidin-1-yl-1-[4-(trifluoromethoxy)phenyl] cinnoline-3-carboxylic acid] | 0 (0=0%) | 0 (0=0%) | 0 (0=0%) | 0 (0=0%) | 0 (0=0%) | 0 (0=0%) | 0 (0=0%) | 0 (0=0%) | 0 (0=0%) | 0 (0=0%) | 0 (0=0%) | 0 (0=0%)
CCOC(=O)c1nn(-c2ccc(OC(F)(F)F)cc2)c2cccc(N3CCOCC3)c2c1=O [Compound P26, ethyl 5-morpholino-4-oxo-1-[4-(trifluoromethoxy)phenyl] cinnoline-3-carboxylate] | 1 (1=10-20%) | 0 (0=0%) | 0 (0=0%) | 0 (0=0%) | 0 (0=0%) | 0 (0=0%) | 0 (0=0%) | 0 (0=0%) | 0 (0=0%) | 0 (0=0%) | 0 (0=0%) | 0 (0=0%)
C/C(=N\O)c1cccc2c1c(=O)c(C(=O)O)nn2-c1ccc(OC(F)(F)F)cc1 [Compound P15, 5-[(E)-N-hydroxy-C-methyl-carbonimidoyl]-4-oxo-1-[4-(trifluoromethoxy)phenyl] cinnoline-3-carboxylic acid] | 4 (4=61-80%) | 1 (1=10-20%) | 4 (4=61-80%) | 2 (2=21-40%) | 3 (3=41-60%) | 5 (5=81-100%) | 0 (0=0%) | 3 (3=41-60%) | 3 (3=41-60%) | 2 (2=21-40%) | 3 (3=41-60%) | 3 (3=41-60%)

From patent publication US12649722B2, “Herbicidal cinnoline derivatives” (SYNGENTA CROP PROTECTION AG, priority 2020, dated 2026)
